Assay results reported in PubChem BioAssay AID602160 (Broad Institute, 2011).
Records with an inconclusive call do not appear.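 The calls were made as follows: active = signal-lowering compounds whose fitted AC50 is at most twice the top tested dose in every run; inconclusive = mixed runs, weak flat curves, or poor fits; inactive = the rest.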

Target: Plasmodium falciparum Hsp90 (expressed in yeast GR reporter strain)
Test: GR-driven beta-gal reporter inhibition, PfHsp90 yeast strain – S. cerevisiae, beta-gal luminescence, dry powder samples, dose response (AID 602160)

AC50, active:
Cc1ccc(OCc2n[nH]c(=S)n2C2CCCCC2)cc1 20.2 µM
O=C(CSCC(=O)N1CCCCC1)Nc1nc(-c2ccc(Cl)s2)cs1 19.6 µM
O=S(=O)(NC1CCCCCC1)c1ccc(Br)s1 10.7 µM
O=S(=O)(/C=C/c1ccccc1)NC1CCCCCCC1 15.1 µM
